Results: paper PMC9943626, “CS27109, A Selective Thyroid Hormone Receptor-β Agonist Alleviates Metabolic-Associated Fatty Liver Disease in Murine Models” (International Journal of Endocrinology, 2023)

How the values were obtained:
[1] = target: T1, THR-α (Homo sapiens, UniProt P10827); assay: Luciferase reporter gene assay, THR-α; format: cell-based; settings: CV-1 cells transfected with THR-α, DR4 luciferase reporter, 22 hours
T1 construct: expressed in transfected cells; host or cells: CV-1 cells
T1 sequence (P10827 1-410 isoform P10827-2): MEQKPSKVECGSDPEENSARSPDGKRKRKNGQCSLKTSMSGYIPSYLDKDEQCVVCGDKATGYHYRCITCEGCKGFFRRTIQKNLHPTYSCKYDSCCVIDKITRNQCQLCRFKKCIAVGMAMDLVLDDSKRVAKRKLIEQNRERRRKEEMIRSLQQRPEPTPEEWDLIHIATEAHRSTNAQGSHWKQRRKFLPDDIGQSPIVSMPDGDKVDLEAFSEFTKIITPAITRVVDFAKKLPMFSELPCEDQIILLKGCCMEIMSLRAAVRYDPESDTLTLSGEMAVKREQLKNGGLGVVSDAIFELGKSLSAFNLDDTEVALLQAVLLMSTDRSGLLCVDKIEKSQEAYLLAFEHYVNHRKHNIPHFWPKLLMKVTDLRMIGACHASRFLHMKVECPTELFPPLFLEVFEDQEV
Method: (§1) We applied a luciferase reporter gene assay to assess the capacity of drugs to bind and activate THRα or THRβ. First, we seeded 5 × 10^3 CV-1 cells for each well into 96-well plates and incubated for 24 hours at 37°C and 5% CO2. We then transiently transfected mixed THR-α or THR-β expression plasmids (with DR4) into liposomes with a firefly luciferase reporter (2 : 2 : 1, THRα : DR4 : GFP or 3 : 3 : 1, THRβ : DR4 : GFP) and then mixed with the X-tremeGENE HP DNA Transfection Reagent (Roche, Basel, BS, Switzerland). […] We then removed the medium and added 60 μl of 1x Cell Culture Lysis and 5x reagent (Promega, E153A) to each well. […] Finally, we added 30 μl of Luciferase Assay Buffer (Promega, E151A) to each well to detect Luci values. 50% activation (AC50) for each compound was calculated based on these values.

[2] = target: T2, THR-β (Homo sapiens, UniProt P10828); assay: Luciferase reporter gene assay, THR-β; format: cell-based
T2 construct: expressed in transfected cells; host or cells: CV-1 cells
T2 sequence (P10828 1-461): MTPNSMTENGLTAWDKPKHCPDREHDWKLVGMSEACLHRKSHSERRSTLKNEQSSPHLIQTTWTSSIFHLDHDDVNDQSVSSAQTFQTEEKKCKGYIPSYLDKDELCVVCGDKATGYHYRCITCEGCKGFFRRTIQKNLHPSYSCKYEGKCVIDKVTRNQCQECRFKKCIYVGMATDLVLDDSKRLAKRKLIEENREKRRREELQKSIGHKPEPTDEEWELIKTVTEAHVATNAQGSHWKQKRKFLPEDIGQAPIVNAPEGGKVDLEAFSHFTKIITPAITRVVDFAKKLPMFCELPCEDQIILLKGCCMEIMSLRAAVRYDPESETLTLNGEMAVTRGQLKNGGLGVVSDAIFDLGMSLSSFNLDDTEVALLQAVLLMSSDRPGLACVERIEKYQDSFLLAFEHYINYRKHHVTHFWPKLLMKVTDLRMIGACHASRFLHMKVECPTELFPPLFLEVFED
Method: as §1

[3] = PK in the mouse; format: in vivo, C57/B6 mouse
Method: Blood was collected for each mouse 0.5, 1, 2, 3, 4, 6, 8, 24, and 30 hours (H) after compound administration. Then, the serum was isolated and an extractant (containing 200 ng/ml methanol) was added to the serum. Samples were assessed by liquid chromatography-tandem mass spectrometry (LC-MS/MS) according to the standard procedure.

[4] = tested on: WD + CCL4 model; design: method as in earlier work; settings: CCL4 induction started at week 8 (8 weeks in total), drug began 4-week after CCL4 induction; CS27109 alone; ref our another study (manuscript is submitting to another journal); cited from earlier work
[5] = PK in the rat; format: in vivo, SD rat; settings: 10 mg/kg oral gavage once

Compound | AC50 [1] | AC50 ([2]; CV-1 cells transfected with THR-β, DR4 luciferase reporter, 22 hours) | Selectivity (α/β) ([2]; THR-α/THR-β AC50 ratio) | PK properties in mouse (comparison of CS27109 and MGL3196) ([3]; 10 mg/kg oral gavage once) | AUC in mouse relative to AUC in rat ([3]; 10 mg/kg oral, mouse higher than rat) | liver fibrosis [4] | PK properties in rat (compared with CS27109) [5]
N#Cc1nn(-c2cc(Br)c(Oc3n[nH]c(=O)c4ccccc34)c(Br)c2)c(=O)[nH]c1=O [CS27109] | 25.1 µM | 1.98 µM | 12.67 | comparative PK properties | 1.5 fold | sufficient to reverse liver fibrosis | –
CC(C)c1cc(Oc2c(Cl)cc(-n3nc(C#N)c(=O)[nH]c3=O)cc2Cl)n[nH]c1=O [MGL3196, 2-[3,5-dichloro-4-(5-isopropyl-6-oxo-1,6-dihydropyridazin-3-yloxy)phenyl]-3,5-dio xo-2,3,4,5-tetrahydro[1,2,4]triazine-6-carbonitrile, reference compound] | – | – | – | – | – | – | slightly higher PK properties
